This note sets out measurements from patent publication US10208037B2, “Toll-like receptor-7 and -8 modulatory 1H imidazoquinoline derived compounds” (The University of Kansas, priority 2011, dated 2019).

One data set is described as follows: Aqueous solubility. Type of data set: physicochemical.
For data set [1], the system named is human PBMCs. The data set is described as follows: Immunoassays for IFN-α, IFN-γ, IL-12 and IL-18 in human PBMCs. Type of data set: cell-based. As to the method:
Fresh human peripheral blood mononuclear cells (PBMC) were isolated from human blood obtained by venipuncture with informed consent and as per institutional guidelines on Ficoll-Hypaque gradients as described elsewhere.^53 Aliquots of PBMCs (10^5 cells in 100 µL/well) were stimulated for 12 h with graded concentrations of test compounds. Supernatants were isolated by centrifugation, diluted 1:20, and were assayed in triplicates using a high-sensitivity analyte-specific ELISA kits (PBL Interferon Source, Piscataway, N.J. and R&D Systems, Inc., Minneapolis, Minn.).

In a further data set the test system is outbred CF-1 mice. Description: Immunization of CF-1 mice with bovine α-lactalbumin, antibody ELISA. Type of data set: in vivo. To be noted: relative to α-lactalbumin alone; boost Day 14, bled Day 21. As to the method: FIGS. 10A-10D are graphs illustrating immunoglobulin profiles in outbred CF-1 mice immunized on Day 0 with 50 μg/animal of α-lactalbumin, or α-lactalbumin covalently coupled with 5 equivalents of 8, or α-lactalbumin mixed with 5 equivalents of 7d. Animals (5 per cohort) were boosted once on Day 14 exactly as mentioned above, and bled on Day 21. α-lactalbumin-specific immunoglobulin levels were quantified by standard antibody-capture ELISA, performed in liquid handler-assisted 384-well format.
FIG. 11 is a graph illustrating affinity IgG ELISA showing antibody titer as a function of chaotrope (NaSCN) concentration. IgG titers on the ordinate axis were calculated from absorbance values at 0.25 (which corresponds to […] above that of naïve controls).
All experiments were performed in accordance with animal care protocols approved by the University of Kansas IACUC Committee. […]
A precision 2000 liquid handler (Bio-Tek, Winooski, Vt.) was used for all serial dilution and reagent addition steps, and a Bio-Tek ELx405 384-well plate washer was employed for plate washes; 100 mM phosphate-buffered saline (PBS) pH 7.4, containing 0.1% Tween-20 was used as wash buffer. […] Plates were then read at 450 nm using a SpectraMax M4 device (Molecular Devices, Sunnyvale, Calif.). […]
In general terms: In an ELISA, binding on a coated surface is turned into a signal by an enzyme label.

In the next data set the target is T1, TLR7 (Homo sapiens, UniProt Q9NYK1).
T1 construct: expressed in transfected cells; host or cells: HEK293 (HEK-Blue-7 cells)
T1 sequence (Q9NYK1 27-1049): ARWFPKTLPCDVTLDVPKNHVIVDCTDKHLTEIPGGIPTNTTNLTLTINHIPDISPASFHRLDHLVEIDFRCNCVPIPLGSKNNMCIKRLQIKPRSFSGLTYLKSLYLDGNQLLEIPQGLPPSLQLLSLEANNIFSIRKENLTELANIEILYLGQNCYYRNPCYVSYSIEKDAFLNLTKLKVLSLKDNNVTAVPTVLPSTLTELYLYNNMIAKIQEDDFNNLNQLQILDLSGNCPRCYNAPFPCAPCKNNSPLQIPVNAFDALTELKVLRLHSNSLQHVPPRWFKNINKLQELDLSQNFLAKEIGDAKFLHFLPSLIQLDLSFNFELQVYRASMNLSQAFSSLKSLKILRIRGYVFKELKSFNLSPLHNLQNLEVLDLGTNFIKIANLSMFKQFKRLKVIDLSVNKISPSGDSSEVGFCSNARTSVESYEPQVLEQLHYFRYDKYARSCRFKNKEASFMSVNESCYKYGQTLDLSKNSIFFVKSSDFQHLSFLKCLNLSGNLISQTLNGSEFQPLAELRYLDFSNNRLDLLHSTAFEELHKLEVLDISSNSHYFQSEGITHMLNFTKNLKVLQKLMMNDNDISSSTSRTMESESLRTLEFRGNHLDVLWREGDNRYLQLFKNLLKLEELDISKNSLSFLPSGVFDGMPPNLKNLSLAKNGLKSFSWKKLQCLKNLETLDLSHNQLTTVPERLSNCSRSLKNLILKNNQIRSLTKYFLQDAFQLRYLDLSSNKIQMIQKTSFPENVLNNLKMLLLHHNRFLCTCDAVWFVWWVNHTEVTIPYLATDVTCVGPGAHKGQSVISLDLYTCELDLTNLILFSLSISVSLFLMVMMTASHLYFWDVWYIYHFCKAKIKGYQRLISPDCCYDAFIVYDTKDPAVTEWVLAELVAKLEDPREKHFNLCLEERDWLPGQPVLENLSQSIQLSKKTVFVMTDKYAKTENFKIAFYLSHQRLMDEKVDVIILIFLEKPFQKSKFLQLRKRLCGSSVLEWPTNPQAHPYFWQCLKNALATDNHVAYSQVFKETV
Description: TLR7 reporter gene assay (NF-κB induction, HEK-Blue-7 cells), agonism. It is filed as cell-based. An excerpt:
(§1) NF-κB induction: The induction of NF-κB was quantified using HEK-Blue-7 cells and HEK-Blue-8 cells as previously described by us.^8,24 HEK293 cells were stably transfected with human TLR7 (or human TLR8), MD2, and secreted alkaline phosphatase (sAP), and were maintained in HEK-Blue™ Selection medium containing zeocin and normocin. Stable expression of secreted alkaline phosphatase (sAP) under control of NF-κB/AP-1 promoters is inducible by the TLR7 (or TLR8) agonists, and extracellular sAP in the supernatant is proportional to NF-κB induction. HEK-Blue cells were incubated at a density of […] in a volume of 80 μL/well, in 384-well, flat-bottomed, cell culture-treated microtiter plates until confluency was achieved, and subsequently graded concentrations of stimuli. sAP was assayed spectrophotometrically using an alkaline phosphatase-specific chromogen (present in HEK-detection medium as supplied by the vendor) at 620 nm.
(§2) The induction of NF-κB was quantified using HEK-Blue-3, HEK-Blue-7 and HEK-Blue-8 cells as previously described by us.^8,24,51 HEK293 cells were stably transfected with human TLR3 (or human TLR7 or human TLR8), MD2, and secreted alkaline phosphatase (sAP), and were maintained in HEK-Blue™ Selection medium containing zeocin and normocin. Stable expression of secreted alkaline phosphatase (sAP) under control of NF-κB/AP-1 promoters is inducible by the TLR3 (or TLR7 or TLR8) agonists, and extracellular sAP in the supernatant is proportional to NF-κB induction. HEK-Blue cells were incubated at a density of ˜10^5 cells/ml in a volume of 80 μl/well, in 384-well, flat-bottomed, cell culture-treated microtiter plates until confluency was achieved, and subsequently graded concentrations of stimuli. sAP was assayed spectrophotometrically using an alkaline phosphatase-specific chromogen (present in HEK-detection medium as supplied by the vendor) at 620 nm.
A general note: A reporter such as luciferase makes a cellular process visible.

In the next data set the test system is rabbits. The data set is described as follows: Rabbit immunization model using bovine α-lactalbumin as model subunit vaccine. To be noted: in vivo. An excerpt:
FIG. 18 illustrates ratios of Immune-1/pre-immune (after primary vaccination) and Immune-2/pre-immune (after Boost-1) anti-α-lactalbumin IgG titers in rabbits. FIGS. 19A and 19B are graphs illustrating TLR7 and TLR8 agonistic activities of the imidazoquinoline dimers in human TLR-specific reporter gene assays.
FIG. 27 illustrates ratios of immune-1/pre-immune (after primary vaccination) and Immune-2/pre-immune (after Boost-1) anti-α-lactalbumin IgG titers in rabbits using the hybrids as adjuvants. Also shown are the IMDQ (7d) and PAM2CS, as well as IMDQ (7d)+PAM2CS mixture controls.

The test system of data set [2] is human PBMCs. Description: Proinflammatory cytokine induction in human PBMCs. It is filed as cell-based. As to the method:
Aliquots (10^6 cells in 100 μL) of hPBMCs isolated from blood obtained from healthy human donors after informed consent by conventional Ficoll-Hypaque gradient centrifugation were stimulated for 12 h with graded concentrations of test compounds. The supernatant was isolated by centrifugation, diluted 1:20, and cytokines and chemokines were assayed in triplicate using analyte-specific cytokine/chemokine bead array assays as reported by us previously.^74

In another data set the target is T2, TLR8 (Homo sapiens, UniProt Q9NR97).
T2 construct: expressed in transfected cells; host or cells: HEK293 (HEK-Blue-8 cells)
T2 sequence (Q9NR97 27-1041): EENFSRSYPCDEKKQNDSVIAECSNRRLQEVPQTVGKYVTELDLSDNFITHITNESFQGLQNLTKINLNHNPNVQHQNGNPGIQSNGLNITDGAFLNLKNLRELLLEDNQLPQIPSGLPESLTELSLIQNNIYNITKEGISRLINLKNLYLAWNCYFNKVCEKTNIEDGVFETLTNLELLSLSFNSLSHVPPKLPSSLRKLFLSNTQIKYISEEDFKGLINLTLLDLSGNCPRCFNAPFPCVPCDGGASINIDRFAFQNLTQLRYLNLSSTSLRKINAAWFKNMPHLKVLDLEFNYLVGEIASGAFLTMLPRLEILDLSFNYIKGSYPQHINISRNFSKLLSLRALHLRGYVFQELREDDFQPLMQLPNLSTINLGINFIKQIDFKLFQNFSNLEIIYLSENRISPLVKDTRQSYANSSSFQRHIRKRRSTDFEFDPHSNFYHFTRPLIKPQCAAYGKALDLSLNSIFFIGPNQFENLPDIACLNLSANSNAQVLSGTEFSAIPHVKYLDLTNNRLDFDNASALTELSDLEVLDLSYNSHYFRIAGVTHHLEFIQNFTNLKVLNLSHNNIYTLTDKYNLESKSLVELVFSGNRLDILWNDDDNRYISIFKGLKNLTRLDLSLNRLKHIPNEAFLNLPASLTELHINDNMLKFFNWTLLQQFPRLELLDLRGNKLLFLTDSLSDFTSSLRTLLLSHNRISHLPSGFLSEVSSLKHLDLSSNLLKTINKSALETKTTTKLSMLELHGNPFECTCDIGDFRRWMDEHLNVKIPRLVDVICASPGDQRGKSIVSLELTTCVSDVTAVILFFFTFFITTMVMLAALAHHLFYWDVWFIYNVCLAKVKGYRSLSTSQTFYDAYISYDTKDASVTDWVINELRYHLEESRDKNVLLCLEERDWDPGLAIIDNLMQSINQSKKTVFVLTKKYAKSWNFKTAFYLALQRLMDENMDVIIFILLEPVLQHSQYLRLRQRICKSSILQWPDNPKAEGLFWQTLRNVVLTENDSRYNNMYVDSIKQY
Description: TLR8 reporter gene assay (NF-κB induction, HEK-Blue-8 cells), agonism. Type of data set: cell-based.
Source text: as §1, §2

Regarding `CCCCc1nc2c(N)nc3ccccc3c2n1Cc1ccc(CN)cc1` [Compound 7d, 1-(4-(Aminomethyl)benzyl)-2-butyl-1H-imidazo[4,5-c]quinolin-4-amine], the “Aqueous solubility (in words)” value in the data set “Aqueous solubility” was “excellent”. Also, in the data set on human PBMCs [1], the “Th1 bias (induction of IFN-α, IFN-γ, IL-12, IL-18)” value is “prominent Th1 bias”. Further, the α-lactalbumin-specific antibody titers result with outbred CF-1 mice is “dramatic enhancements in antibody titers”.

As for `CCCCc1nc2c(N)nc3ccccc3c2n1Cc1ccc(CNC(=O)Cn2cc(CN(CCN(CCN(Cc3cn(CC(=O)NCc4ccc(Cn5c(CCCC)nc6c(N)nc7ccccc7c65)cc4)nn3)Cc3cn(CC(=O)NCc4ccc(Cn5c(CCCC)nc6c(N)nc7ccccc7c65)cc4)nn3)CCN(Cc3cn(CC(=O)NCc4ccc(Cn5c(CCCC)nc6c(N)nc7ccccc7c65)cc4)nn3)Cc3cn(CC(=O)NCc4ccc(Cn5c(CCCC)nc6c(N)nc7ccccc7c65)cc4)nn3)Cc3cn(CC(=O)NCc4ccc(Cn5c(CCCC)nc6c(N)nc7ccccc7c65)cc4)nn3)nn2)cc1` [Compound 43], the “TLR7-agonistic activity (in words)” value at TLR7 was “retaining in large measure the TLR7-agonistic activity”. Moreover, the “Adjuvantic activity, anti-α-lactalbumin IgG titers in rabbits” value in the data set with rabbits was “better than 7d”. Moreover, the “IFN-γ induction (in words)” value in the data set with human PBMCs [1] was “selective and complete loss of TLR8-associated IFN-γ”. Moreover, the “Proinflammatory cytokine induction (in words)” value with human PBMCs [2] is given as “absence of proinflammatory cytokine induction”. For the same compound, the “TLR8-agonistic activity (in words)” value on TLR8 is listed as “loss of TLR8-stimulatory activity”.
